Source: patent publication US8563013B2, “Systems and methods for delivering a fluid drug” (Janssen Biotech, Inc., priority 2007, dated 2013)

Assay: Light-induced degradation of a carbidopa-containing fluid formulation
Format: physicochemical
Settings: fluid formulation having carbidopa; visible light with wavelengths in the range of about 400 nm to about 550 nm
Excerpt: In some embodiments, the reservoir, and/or other portions of a dosing container, can be adapted to hinder exposure of a contained fluid from portions of a light spectrum, which can be capable of degrading or rendering one or more components of a fluid ineffective. […] Accordingly, if a container is adapted to hinder a carbidopa-containing fluid from being exposed to at least wavelengths in about the 400 nm to about 550 nm range, preservation of the carbidopa can be enhanced. As well, other embodiments can utilize other techniques, in combination or alone, which effectively reduce degradation of a carbidopa-containing fluid in the presence of visible light, such as adding a dye to the carbidopa-containing fluid (e.g., FD&C Yellow 6) to absorb the undesired light components. Other techniques, including ones familiar to those skilled in the art, can also be used.

## C[C@@](Cc1ccc(O)c(O)c1)(NN)C(=O)O [carbidopa]
  degradation on exposure to light: found to degrade
